The text below walks through data of patent US5411985A, “Gamma-pyrone-3-acetic acid as an inhibitor or interleukin-1 β inventory enzyme” (Merck & Co., Inc., priority 1993, dated 1995).

Series [1] in a line: Solubility of isolated material. Format: physicochemical. The protocol:
Compound was isolated further by purification using HPLC. Two mL of filtered solution was passed through a C4 radial compression column (25×100 mm, WATERS ASSOCIATES) and an isocratic flow rate of 10 mL per minute of water was used to elute the active compound. A total of 5 runs were performed with fractions being collected at one minute intervals. The fractions were tested for ICE-activity. The active fractions eluted between 9-10 minutes. The ICE-active-rich cuts from each run were pooled and lyophilized. The resulting material appeared to be an oily brown substance that was soluble in water, methanol, and DMSO. Estimates of 7 mg of compound can be isolated from 300 ml of whole broth.

Series [2] has as its target T1, interleukin-1β converting enzyme (ICE) (Homo sapiens, UniProt P29466).
T1 sequence (P29466 120-297 limits assumed): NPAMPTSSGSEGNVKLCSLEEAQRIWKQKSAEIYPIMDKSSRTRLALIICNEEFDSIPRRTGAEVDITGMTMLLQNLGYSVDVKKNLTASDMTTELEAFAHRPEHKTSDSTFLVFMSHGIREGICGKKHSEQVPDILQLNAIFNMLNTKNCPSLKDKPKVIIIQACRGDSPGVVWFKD
T1 sequence (P29466 317-404 limits assumed): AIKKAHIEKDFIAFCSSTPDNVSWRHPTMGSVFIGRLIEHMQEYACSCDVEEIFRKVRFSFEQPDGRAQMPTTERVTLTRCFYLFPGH
Description: ICE activity by the procedure of Thornberry et al. (1992). Format: biochemical. The protocol:
Assay for assessing the ICE activity of compound of Formula I
Gamma-pyrone-3-acetic acid was assessed for ICE activity by the procedure of Thomberry, et al (1992) Nature Vol. 356 pp 768-774.

Structures are written as SMILES.

As usually defined, the IC50 is the point on the concentration scale where inhibition reaches its midpoint. Consider `O=C(O)Cc1coccc1=O` [Gamma-pyrone-3-acetic acid, gamma-pyrone-3-acetic acid], for which the “solubility in DMSO” value in series [1] (DMSO) was “soluble”. The solubility in methanol entry in series [1] (methanol) is “soluble”. Further, the solubility in water result in series [1] (water) is “soluble”. The half-inhibitory concentration (IC50) in series [2] (pH 6.5 and 1 mM DDT) is 1300 nM; in series [2] (pH 7:5 and 1 mM DDT) it was 4540 nM.
